Test results published in patent US9688653B2, “Ethoxyphenyl thienyl compounds and methods for the treatment of bacterial infections” (Duke University, priority 2013, dated 2017).

Assays:
[1] = test system: E. coli K1 strain UTI89; assay: microbe, parasite or virus in culture; details: read-out: K1 phage IC50; first round of synthetic analogues, n = 3
Excerpt: The ability of the […] to bind to bacterial capsule, infect, and lyse E. coli UT189 was used as the primary assay to identify the effects of screened compounds on bacterial capsule formation. The phenotypic end-point assay measured the fluorescence generated by cellular processing of Alamar Blue as a direct indicator of cell viability. A total of […] compounds were screened using the primary assay. […] Hits were further evaluated using […] secondary assays for alternative measurement of compound-induced reduction in bacterial capsule formation (secondary assays 1 and 2) and specificity (secondary assays 3 and 4). Confirmed actives with an SI>5 were further investigated and subjected to chemical optimization, followed by secondary assay evaluation. Secondary assays more closely characterized the ability of the compounds to reduce bacterial capsule formation and can be used to examine the mechanism of action of the compounds. The combination of primary assay (to measure capsule reduction), counter assay (for general eukaryotic cell toxicity) and secondary assay (to measure reduction in capsule formation and specificity) were combined to allow a determination of probe efficacy, selectivity, and specificity.
A. Primary Assay: Screening for Inhibitors of Bacterial Capsule Biogenesis.
Primary assay: An end-point assay to measure the amount of K1 phage-induced bacterial cell lysis was employed to determine the compound effect on capsule biogenesis. K1 bacteriophage specifically binds the bacterial capsule during the initial stages of infection. Bacteria without capsule cannot be infected and lysed by the bacteriophage. […] A total of 338,740 compounds were screened at 100 μM in the primary screen Inhibition of phage lysis was calculated relative to the mean of the bacterial (positive) control on each microtiter plate. […] For calculation of S/B/Z value, and CV, the following formulae (in which SD stands for standard deviation) were used: S/B=mean signal/mean background; Z=1-3SD of sample+3SD of control mean of sample−mean of control; % CV=(SD mean signal/mean signal)×100.
IC50 values were calculated using a 4 parameter Levenburg-Marquardt algorithm, with the maximum and minimum locked at 0 and 100 respectively.
Primary assay: The primary assay was conducted in the 1,536 well plate format. Bacterial cultures of E. coli K1 strain UTI89 (cystitis isolate) and isogenic capsule mutant strains (as controls for phage infection) were grown and prepared at the screening center immediately prior to use. Overnight starting cultures of UTI89 were grown at 37° C., and inoculated into 1 liter of LB (starting OD600˜0.03), which was sufficient for screening 40 plates (including ˜10% waste) and ˜40,000 compounds as single points.
Control wells contained UTI89 (wt K1) with 0.5% DMSO as a simulated positive control; UTI89 with 0.5% DMSO and tetracycline for a negative growth control; and media plus vehicle control. 50 mL of LB Broth was inoculated with stock 150 μL E. coli UT189 and grown overnight at 37° C. The next day, cultures were diluted 1:75 in 1 L of LB Broth containing 0.5% DMSO. 3 μL of this culture was added to each plate well, and plates were incubated, inverted, at 37° C. for 2 hr. The K1F bacteriophage stock was diluted 1:8 in LB Broth containing 0.5% DMSO, and 1.5 μL of diluted phage (or media only) was added to the pre-plated test compound wells and appropriate control wells. The plates were centrifuged briefly, and then were incubated, inverted, at 37° C. for an additional 2 hr. Afterward, Alamar Blue reagent (Invitrogen, #DAL1100) was diluted 1:2 with LB broth and 1 μL was added to each plate well.

[2] = test system: Bladder carcinoma 5637 cells; assay: Cytotoxicity counterscreen, CellTiter Glo, 72 hr; type: cell-based, human
Protocol: B. Counterscreen: Cytotoxicity Screening for Potential Inhibitors of Bacterial Capsule Biogenesis.
Purpose: This cell-based assay measures the cytotoxicity of compounds in bladder carcinoma 5637 cells using luminescent cell viability assay readout.
Cytotoxicity assay: The cytotoxicity assay was performed as described in Section 6: Appendix. Hit cytotoxicity and the 50% toxic concentration (CC50) was determined and compared to the IC50 to calculate the selectivity index.
Assay Description: Cytotoxicity: Dose response testing (dose range=300-0.58 μM) established the hit cytotoxicity data. Compounds were plated in 384-well microplates in a stacked dose response format using the same doses used in the efficacy dose response. Bladder carcinoma 5637 cells were added to the compounds, and 72 hr later cell viability was measured using CellTiter Glo (38). Hit cytotoxicity and the 50% toxic concentration (TC50) was determined and compared to the IC50 to calculate the therapeutic index. Test compounds are serially diluted in a plate to plate matrix or stacked plate matrix. All 320 compounds in a source plate are diluted together resulting in a 10 point dose response dilution series. It is visualized as a serial dilution series proceeding vertically through a stack of plates with the high dose plate on top and the low dose plate on the bottom.
Control Drug: Hyamine was used as a positive cytotoxic control. All wells contained 0.5% DMSO.
Preparation of Bladder carcinoma 5637 cells: Cells are harvested and resuspended to 80,000 cells per ml in Complete DMEM/F12®.
Endpoint Read: Following the three day incubation period, the assay plates were equilibrated to room temperature for 30 min and an equal volume (30 μL) of Cell Titer-Glo® reagent (Promega Inc.) is added to each well using a WellMate™ (Matrix, Hudson, N.H.) and plates are incubated for an additional 10 min at room temperature. At the end of the incubation, luminescence is measured using a Perkin Elmer Envision™ multi-label reader (PerkinElmer, Wellesley, Mass.) with an integration time of 0.1 s.
Cytotoxicity. Testing was performed essentially as previously described. Concentration-response testing was performed over a range 0.58-300 μM in a […] well plate format. Bladder carcinoma 5637 cells (ATCC HTB-9) were added to the compounds, and 72 hrs later cell viability was measured using CellTiter Glo (Promega). The 50% toxic concentration (TC50) was determined and compared to the IC50 to calculate the therapeutic index. Hyamine was used as a positive cytotoxic control. All wells contained 0.5% DMSO.

[3] = test system: E. coli K1 strain UTI89; assay: Secondary assay 2: T7 phage-mediated lysis assay; type: cell-based, Escherichia coli; details: first round of synthetic analogues, n = 2; read-out: T7 phage IC50
Excerpt: D. Secondary Assay 2: Screening for Inhibitors of Bacterial Capsule Biogenesis—T7 Lysis Inhibition
Purpose: This secondary assay measures the compound mechanistic specificity for inhibition of bacterial capsule formation and excludes inhibitors of phage replication using a different bacteriophage (T7). In this assay, an increase in phage-induced lysis correlates to a decrease in capsule formation.
Purpose: This secondary assay measures the compound mechanistic specificity for inhibition of bacterial capsule formation using a different bacterial phage (T7). In this assay, an increase in phage-induced lysis correlates to a decrease in capsule formation.
Assay Description: T7 phage-mediated lysis assay: This assay determined if the mechanism of action of the compound is inhibition of phage infectivity or replication. The T7 phage has a nearly identical genome to K1F, without encoding an endosialidase. Its cycle of replication is similar to that of K1F as well. However, T7 entry into E. coli is inhibited by K capsules. This secondary assay was conducted in the 96 well plate format. […] Compounds were added in quadruplicate to plates in a concentration dependent manner in the range of 100-0.39 μM, followed by addition of 100 μL of bacterial culture. 1% DMSO (final well concentration) was included. The plates were tape sealed and shaken vigorously for 1.5 hr. An initial OD600 reading was measured to identify compounds that cause growth retardation or bacterial killing in the absence of phage. Next, T7 phage (5 μL) was added to all of the test wells. The plates were resealed and shaken vigorously at 37° C., and measurements of OD600 for phage-mediated lysis were taken after 3 hr. True inhibitors of capsule yielded bacteria that were susceptible to T7 phage and lysed within 2 hr of the addition of phage. […] The positive control drug C7 (100 μM final well concentration) was used in this screen.
T7 phage counter assay. This secondary assay was performed as previously described and was used to distinguish compounds with phage inhibitory effects from true polysaccharide capsule inhibitors. […] Thus, the presence of a capsule inhibits T7-mediated lysis. In this assay, an increase in phage-induced lysis correlates to a decrease in capsule formation. True inhibitors of capsule yielded bacteria that were susceptible to T7 phage and lysed within 2 hr of the addition of phage. […] The positive control molecule C7 (100 μM final well concentration) was used in this screen.

SMILES	IC50 [1] [µM]	IC50 [2] [µM]	IC50 [3] [µM]
O=C(Nc1cc(-c2ccc(C(F)(F)F)cc2)sc1C(=O)O)c1cc2ccccc2o1 [compound 53470417]	> 100	72.1	7.17
O=C(Nc1cc(-c2ccc(C(F)(F)F)cc2)sc1C(=O)O)c1cccc(F)c1 [compound 53470418]	> 100	35.1	12.8
CC(C)c1ccc(-c2cc(NC(=O)c3ccc(Br)o3)c(C(=O)O)s2)cc1 [compound 53470420]	3.08	50.4	1.25
Cc1ccc(-c2cc(NC(=O)c3c(F)cccc3F)c(C(=O)O)s2)cc1 [compound 53470422]	40.3	57.3	2.43
Cc1ccc(-c2cc(NC(=O)c3ccc(Br)o3)c(C(=O)O)s2)cc1 [compound 53470423]	15.7	50.7	1.01
CC(C)(C)c1ccc(-c2cc(NC(=O)c3cc4ccccc4o3)c(C(=O)O)s2)cc1 [compound 53470424]	> 100	34.5	2.83
CCOc1ccc(-c2cc(NC(=O)c3cc4ccccc4o3)c(C(=O)O)s2)cc1 [compound 53470427]	> 100	193	2.75
O=C(Nc1cc(-c2ccc(C(F)(F)F)cc2)sc1C(=O)O)c1ccc(Br)s1 [compound 53470428]	> 50	38.5	14.1
Cc1ccc(-c2cc(NC(=O)c3ccc(Br)s3)c(C(=O)O)s2)cc1 [compound 53470429]	> 50	64	10.7
COc1ccc(-c2cc(NC(=O)c3c(F)cccc3F)c(C(=O)O)s2)cc1 [compound 53470430]	> 100	239	2.65
CC(C)c1ccc(-c2cc(NC(=O)c3ccc(Br)s3)c(C(=O)O)s2)cc1 [compound 53470432]	> 100	33.1	2.75
CC(C)(C)c1ccc(-c2cc(NC(=O)c3c(F)cccc3F)c(C(=O)O)s2)cc1 [compound 53470433]	11.5	35.1	1.64
CC(C)c1ccc(-c2cc(NC(=O)c3cc4ccccc4o3)c(C(=O)O)s2)cc1 [compound 53470434]	42.9	47.2	2.71
CC(C)(C)c1ccc(-c2cc(NC(=O)c3cccc(F)c3)c(C(=O)O)s2)cc1 [compound 53470435]	19.9	21.1	2.7
Cc1ccc(-c2cc(NC(=O)c3cc4ccccc4o3)c(C(=O)O)s2)cc1 [compound 53470436]	> 100	94.6	20
CC(C)c1ccc(-c2cc(NC(=O)c3c(F)cccc3F)c(C(=O)O)s2)cc1 [compound 53470439]	7.09	32.4	1.27
O=C(O)c1sc(-c2ccc(C(F)(F)F)cc2)cc1NC(=O)c1c(F)cccc1F [compound 53470440]	23.7	44.8	3.8
Cc1ccc(-c2cc(NC(=O)c3cccc(F)c3)c(C(=O)O)s2)cc1 [compound 53470441]	53.7	43.9	7.21
COc1ccc(-c2cc(NC(=O)c3cc4ccccc4o3)c(C(=O)O)s2)cc1 [compound 53470443]	> 100	44.8	8.36
CC(C)c1ccc(-c2cc(NC(=O)c3cccc(F)c3)c(C(=O)O)s2)cc1 [compound 53470444]	24.8	37.6	2.81
COc1ccc(-c2cc(NC(=O)c3cccc(F)c3)c(C(=O)O)s2)cc1 [compound 53470445]	> 100	44.8	8.36
COc1ccc(-c2cc(NC(=O)c3ccc(Br)o3)c(C(=O)O)s2)cc1 [compound 53470446]	11.1	50.5	1.24
O=C(O)c1sc(-c2ccc(OC(F)(F)F)cc2)cc1NC(=O)c1c(F)cccc1F [compound 53495055]	13	51	1.35
O=C(Nc1cc(-c2ccc(OC(F)(F)F)cc2)sc1C(=O)O)c1cccc(F)c1 [compound 53495056]	> 100	52.1	> 5
O=C(Nc1cc(-c2ccc(OC(F)(F)F)cc2)sc1C(=O)O)c1ccc(Br)o1 [compound 53495057]	6.39	33.6	1.17
O=C(Nc1cc(-c2ccc(OC(F)(F)F)cc2)sc1C(=O)O)c1cc2ccccc2o1 [compound 53495058]	> 100	40.6	3.83
